Data: paper PMC7124378 (International Journal of Biological Macromolecules, 2015)

How the values were obtained:
cathepsin B = cathepsin B (Capra hircus, UniProt A0A452G2V1); experiment: Inhibition of purified goat liver cathepsin B, BANA substrate, pH 6.0; type: biochemical
cathepsin H = target: T1, cathepsin H (Capra hircus, UniProt A0A452G5L2); experiment: Inhibition of purified goat liver cathepsin H, Leu-βNA substrate, pH 7.0; type: biochemical
T1 sequence (A0A452G5L2 with tags, fused parts or gaps): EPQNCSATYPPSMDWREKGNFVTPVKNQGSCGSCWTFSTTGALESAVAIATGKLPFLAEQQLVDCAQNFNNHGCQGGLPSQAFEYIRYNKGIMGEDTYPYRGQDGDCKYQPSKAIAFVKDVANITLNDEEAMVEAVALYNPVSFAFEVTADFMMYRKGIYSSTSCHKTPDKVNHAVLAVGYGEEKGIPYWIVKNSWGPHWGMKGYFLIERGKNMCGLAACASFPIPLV

cathepsin L = cathepsin L (Capra hircus, UniProt A0A452FFI6); experiment: Inhibition of purified goat liver cathepsin L, ZPheArg-4mβNA substrate, pH 6.0; type: biochemical
goat brain cathepsin B = conditions: read-out: Ki, goat brain cathepsin B; competitive; cited from earlier work
goat brain cathepsin L = conditions: read-out: Ki, goat brain cathepsin L; cited from earlier work

Row | Ki (cathepsin B) [µM] | Ki (cathepsin H) [µM] | Ki (cathepsin L) [nM] | inhibition at 1 µM (cathepsin B; read-out: % inhibition of cathepsin B) [%] | inhibition at 10 µM (cathepsin H; read-out: % inhibition of cathepsin H) [%] | inhibition at 0.001 µM (cathepsin L; read-out: % inhibition of cathepsin L) [%] | Structure (SMILES) | Ki (goat brain cathepsin B) [µM] | Ki (goat brain cathepsin L) [µM]
1 | 41.3 ± 0.5 | 23 ± 0.3 | 2.05 ± 0.02 | – | – | – | NC(=O)N/N=C(/C=C/c1cccc([N+](=O)[O-])c1)c1ccccc1 [Compound 2g, (1Z)-1-((E)-3-(3-nitrophenyl)-1-phenylallylidene)semicarbazide] | – | –
2 | 82.7 ± 1 | 25 ± 0.5 | 50.5 ± 0.3 | – | – | – | NC(=O)N1N=C(c2ccccc2)CC1c1cccc(Cl)c1 (centres unmarked) [Compound 3b, 5-(3′-chlorophenyl)-3-phenyl-2-pyrazoline-1-carboxamide] | – | –
3 | 100 ± 1 | 60 ± 0.2 | 2.05 ± 0.03 | – | – | – | O=C(/C=C/c1cccc([N+](=O)[O-])c1)c1ccccc1 [Compound 1g, (E)-3-(3-nitrophenyl)-1-phenylprop-2-en-1-one] | – | –
4 | 69.3 ± 0.07 | 48 ± 0.2 | 0.5 ± 0.002 | – | – | – | COc1ccc(C2CC(c3ccccc3)=NN2C(N)=O)cc1 (centres unmarked) [Compound 3f] | – | –
5 | 19.5 ± 0.2 | 110 ± 1 | 6 ± 0.02 | – | – | – | O=C(/C=C/c1ccccc1Cl)c1ccccc1 [Compound 1a, (E)-3-(2-chlorophenyl)-1-phenylprop-2-en-1-one] | – | –
6 | 116 ± 2 | 48 ± 0.5 | 23.4 ± 0.2 | – | – | – | Cc1ccc(C2CC(c3ccccc3)=NN2C(N)=O)cc1 (centres unmarked) [Compound 3j] | – | –
7 | 34.9 ± 0.1 | 43 ± 0.1 | 8.2 ± 0.06 | – | – | – | COc1cccc(C2CC(c3ccccc3)=NN2C(N)=O)c1 (centres unmarked) [Compound 3e] | – | –
8 | 0.207 ± 0.001 | 43 ± 0.2 | 1.78 ± 0.02 | – | – | – | NC(=O)N/N=C(/C=C/c1ccccc1Cl)c1ccccc1 [Compound 2a, (1Z)-1-((E)-3-(2-chlorophenyl)-1-phenylallylidene)semicarbazide] | – | –
9 | 39 ± 0.2 | 66 ± 0.4 | 33 ± 0.1 | – | – | – | NC(=O)N1N=C(c2ccccc2)CC1c1ccc(Cl)cc1 (centres unmarked) [Compound 3c] | – | –
10 | 27.3 ± 0.4 | 29 ± 0.5 | 1.17 ± 0.02 | – | – | – | NC(=O)N/N=C(/C=C/c1ccc(Cl)cc1)c1ccccc1 [Compound 2c, (1Z)-1-((E)-3-(4-chlorophenyl)-1-phenylallylidene)semicarbazide] | – | –
11 | 39 ± 0.03 | 60 ± 0.3 | 16.9 ± 0.3 | – | – | – | NC(=O)N1N=C(c2ccccc2)CC1c1ccc([N+](=O)[O-])cc1 (centres unmarked) [Compound 3h] | – | –
12 | – | – | – | ~98.8 | ~52 | 89.2 | CC(=O)N[C@@H](CC(C)C)C(=O)N[C@@H](CC(C)C)C(=O)N[C@H](C=O)CCCNC(=N)N [Leupeptin, reference compound] | 0.0125 | 0.00145
13 | 14.8 ± 0.07 | 40 ± 0.1 | 217 ± 4 | – | – | – | COc1ccccc1C1CC(c2ccccc2)=NN1C(N)=O (centres unmarked) [Compound 3d] | – | –
14 | 2.7 ± 0.04 | 33 ± 0.4 | 0.04 ± 0.0003 | – | – | – | NC(=O)N/N=C(\C=C\c1ccccc1Cl)c1ccccc1 [2a′, (1E)-1-((E)-3-(2-chlorophenyl)-1-phenylallylidene)semicarbazide] | – | –
15 | 58.1 ± 0.05 | 38 ± 0.2 | 0.4 ± 0.005 | – | – | – | NC(=O)N1N=C(c2ccccc2)CC1c1cccc([N+](=O)[O-])c1 (centres unmarked) [Compound 3g, 5-(3′-nitrophenyl)-3-phenyl-2-pyrazoline-1-carboxamide] | – | –
16 | 130 ± 2 | 312 ± 2 | 0.04 ± 0.0001 | – | – | – | O=C(/C=C/c1cccc(Cl)c1)c1ccccc1 [Compound 1b, (E)-3-(3-chlorophenyl)-1-phenylprop-2-en-1-one] | – | –
17 | 9.4 ± 0.03 | 60 ± 0.3 | 31.6 ± 0.4 | – | – | – | NC(=O)N1N=C(c2ccccc2)CC1c1ccccc1Cl (centres unmarked) [Compound 3a, 5-(2′-chlorophenyl)-3-phenyl-2-pyrazoline-1-carboxamide] | – | –
18 | 36.4 ± 0.5 | 21 ± 0.2 | 0.93 ± 0.007 | – | – | – | NC(=O)N/N=C(\C=C\c1ccc(Cl)cc1)c1ccccc1 [2c′, (1E)-1-((E)-3-(4-chlorophenyl)-1-phenylallylidene)semicarbazide] | – | –
19 | 52.4 ± 0.01 | 192 ± 0.4 | 86.2 ± 0.2 | – | – | – | NC(=O)N1N=C(c2ccccc2)CC1c1ccccc1 (centres unmarked) [Compound 3i] | – | –
